# US8178496B2, “Photoreactive regulator of glutamate receptor function and methods of use thereof” (The Regents of the University of California, priority 2007, dated 2012)
# Entries after “also recorded” stand apart in the source; their conditions may differ.
# Key:
# [1] = Photostationary state determination by NMR with in situ irradiation; type: physicochemical; conditions: D2O, mean±s.e.m., n=3
# Method: Cis/trans photoisomerization of 2 was studied by ^1H NMR, with in situ irradiation of the sample using a Polychrome V system monochromator (TILL Photonics) containing a 150 W Xenon short arc lamp with an output range of 320-680 nm. The half-power bandwidth was 14 nm. A 500 μl aliquot of a 100 mM sample in D2O was prepared in a screw-capped 528-TR-7 NMR tube (Wilmad). A FT-600-UMT fiber optic cable (NA 0.39) (Thorlabs) was coupled at one end to the monochromator using a custom fitting and the other end inserted into the NMR tube a few millimeters above the solution. Each sample was irradiated at the desired wavelength for 30 minutes to reach the photostationary state and 480 scans were required to obtain reasonable signal-to-noise ratios. The output from the fiber optic cable between 340-480 nm ranged from 0.3-9.0 μW/cm^2. Data were processed by isolating aromatic cis-trans ^1H signals and summing their integrals to 1.0. All data were obtained in triplicate and averaged.
# [2] = molecular target: T1, wild-type iGluR6(Q) (Homo sapiens, UniProt Q13002); assay: Whole-cell voltage clamp recording in HEK293 cells expressing iGluR6(Q); type: cell-based
# T1 construct: expressed in transfected cells; host or cells: HEK293
# T1 sequence (Q13002 32-908): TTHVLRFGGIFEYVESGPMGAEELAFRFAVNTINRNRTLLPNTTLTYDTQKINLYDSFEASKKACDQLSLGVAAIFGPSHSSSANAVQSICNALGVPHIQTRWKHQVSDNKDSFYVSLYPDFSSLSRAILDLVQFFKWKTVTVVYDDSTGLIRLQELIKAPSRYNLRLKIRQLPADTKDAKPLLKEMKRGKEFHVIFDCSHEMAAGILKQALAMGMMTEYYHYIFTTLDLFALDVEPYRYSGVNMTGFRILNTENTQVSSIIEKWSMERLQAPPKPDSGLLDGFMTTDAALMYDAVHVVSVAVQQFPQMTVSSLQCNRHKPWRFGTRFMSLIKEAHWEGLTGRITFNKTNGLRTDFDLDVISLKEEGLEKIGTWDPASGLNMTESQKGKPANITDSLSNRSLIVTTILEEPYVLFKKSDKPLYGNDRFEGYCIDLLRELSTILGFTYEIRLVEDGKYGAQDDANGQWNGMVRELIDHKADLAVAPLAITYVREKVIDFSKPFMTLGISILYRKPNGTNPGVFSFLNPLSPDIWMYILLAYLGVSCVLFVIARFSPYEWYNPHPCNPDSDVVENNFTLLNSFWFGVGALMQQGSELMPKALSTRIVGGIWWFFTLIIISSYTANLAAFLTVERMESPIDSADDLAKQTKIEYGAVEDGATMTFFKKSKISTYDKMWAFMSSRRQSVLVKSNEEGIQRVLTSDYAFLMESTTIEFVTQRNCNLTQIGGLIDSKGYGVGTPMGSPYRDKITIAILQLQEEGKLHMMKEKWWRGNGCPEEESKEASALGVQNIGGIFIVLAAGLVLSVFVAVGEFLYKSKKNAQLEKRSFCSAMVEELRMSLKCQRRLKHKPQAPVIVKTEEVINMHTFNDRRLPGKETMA
# Method: (§1) HEK293 cells were plated at approximately 3×10^6 cells/ml on poly-L-lysine-coated glass coverslips (Deutsche Spiegelglas, Carolina Biological) and maintained in DMEM with 5% newborn calf serum, 0.2 mg/ml streptomycin, and 200 U/ml penicillin at 37° C. Cells were transiently transfected with various plasmids using lipofectamine 2000 (Invitrogen). The amount of total transfected ionotropic glutamate receptor-2 (iGluR2), iGluR5, and iGluR6 DNA and enhanced yellow fluorescent protein (EYFP) fusion DNA per 0.5 mL well was fixed at 0.7 μg and 0.3 μg, respectively. All recordings were carried out 24 to 48 h after transfection.
# (§2) Patch clamp recordings were carried out using an Axopatch 200A amplifier in the whole cell mode. HEK cells were voltage clamped at −60 mV and hippocampal neurons were current clamped at −65 mV. Pipettes had resistances 2-6 MΩ. For experiments in HEK cells, pipettes were filled with a solution containing (in mM): 145 CsCl, 5 EGTA, 0.5 CaCl2, 1.0 MgCl2 and 10 HEPES at pH7.2 (CsOH). The extracellular solution contained (in mM): 135 NaCl, 5.4 KCl, 0.9 MgCl2, 1.8 CaCl2, and 10 HEPES at pH 7.6 (NaOH). Cells were preincubated for 10 min in control solution containing 300 mg/l Concanavalin A type VI (Sigma) in order to block desensitization. For experiments in hippocampal neurons, pipettes were filled with a solution containing (in mM): 10 NaCl, 1 EGTA, 135 K-gluconate, 2.0 MgCl2, 10 HEPES and 2 Mg-ATP at pH7.4 (KOH). The extracellular solution contained (in mM): 138 NaCl, 1.5 KCl, 1.2 MgCl2, 2.5 CaCl2, 10 glucose and 10 HEPES at pH 7.3 (NaOH). L-Glutamate, DNQX, and compound 2 were applied as reported in text and figures with complete exchange of the bath solution occurring in less than 10 sec. Compound 2 was not pre-irradiated prior to perfusion, but the bath and coverslip were continuously under illumination as denoted in traces. Following complete exchange of the bath, perfusion of 2 was stopped prior to switching illumination wavelengths. Illumination was applied using a TILL Photonics Polychrome V monochromator through a 40×/0.60 W objective (power output: 4.8 mW/mm^2 at 500 nm and 1.8 mW/mm^2 at 380 nm, as measured with a Newport optical power meter). Data was recorded with pClamp software, which was also used to automatically control the monochromator by means of sequencing keys. The results are representative data from multiple cells in at least three independent cultures.
# [3] = molecular target: T2, iGluR5(Q) (Homo sapiens, UniProt P39086); assay: Whole-cell voltage clamp dose-response in HEK293 cells expressing iGluR5(Q); type: cell-based
# T2 construct: expressed in transfected cells; host or cells: HEK293
# T2 sequence (P39086 31-918): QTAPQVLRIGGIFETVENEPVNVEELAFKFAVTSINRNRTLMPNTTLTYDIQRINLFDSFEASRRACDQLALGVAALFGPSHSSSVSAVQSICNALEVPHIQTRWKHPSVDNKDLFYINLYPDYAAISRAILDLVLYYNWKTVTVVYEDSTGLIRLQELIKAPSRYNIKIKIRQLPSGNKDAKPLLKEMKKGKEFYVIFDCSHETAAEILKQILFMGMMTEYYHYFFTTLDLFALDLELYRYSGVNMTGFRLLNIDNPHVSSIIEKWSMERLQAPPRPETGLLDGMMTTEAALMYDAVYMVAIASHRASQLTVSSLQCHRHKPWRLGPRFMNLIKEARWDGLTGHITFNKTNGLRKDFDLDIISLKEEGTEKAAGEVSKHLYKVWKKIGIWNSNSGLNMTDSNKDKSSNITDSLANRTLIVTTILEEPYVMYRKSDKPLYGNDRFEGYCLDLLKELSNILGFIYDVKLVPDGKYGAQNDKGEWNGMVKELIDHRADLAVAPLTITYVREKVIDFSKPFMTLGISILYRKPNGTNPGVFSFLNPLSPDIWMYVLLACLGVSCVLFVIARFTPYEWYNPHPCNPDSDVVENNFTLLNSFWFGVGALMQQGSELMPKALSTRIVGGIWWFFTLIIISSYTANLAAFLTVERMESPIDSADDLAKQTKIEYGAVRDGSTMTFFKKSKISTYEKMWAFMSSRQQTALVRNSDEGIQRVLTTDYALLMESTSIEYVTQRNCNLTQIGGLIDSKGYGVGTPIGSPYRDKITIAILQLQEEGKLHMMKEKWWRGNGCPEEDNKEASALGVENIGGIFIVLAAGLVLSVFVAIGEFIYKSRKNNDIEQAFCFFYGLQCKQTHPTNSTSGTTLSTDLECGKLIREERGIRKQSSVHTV
# Method: as §1, §2
# [4] = test system: iGluR2(Q)flip-L483Y; assay: Whole-cell voltage clamp recording in HEK293 cells expressing iGluR2; type: cell-based
# Method: as §1
# Patch clamp recordings were carried out using an Axopatch 200A amplifier in the whole cell mode. HEK cells were voltage clamped at −60 mV and hippocampal neurons were current clamped at −65 mV. Pipettes had resistances 2-6 MΩ. For experiments in HEK cells, pipettes were filled with a solution containing (in mM): 145 CsCl, 5 EGTA, 0.5 CaCl2, 1.0 MgCl2 and 10 HEPES at pH7.2 (CsOH). […] Illumination was applied using a TILL Photonics Polychrome V monochromator through a 40×/0.60 W objective (power output: 4.8 mW/mm^2 at 500 nm and 1.8 mW/mm^2 at 380 nm, as measured with a Newport optical power meter). Data was recorded with pClamp software, which was also used to automatically control the monochromator by means of sequencing keys. […]
# [5] = test system: cultured rat hippocampal neurons; assay: Whole-cell current clamp recording of cultured hippocampal neurons; type: cell-based
# Method: as §2, with “L-Glutamate, DNQX, and compound 2 were applied as reported in text and figures with complete exchange of the bath solution occurring in less than 10 sec. Compound 2 was not pre-irradiated prior to perfusion, but the bath and coverslip were continuously under illumination as denoted in traces. Following complete exchange of the bath, perfusion of 2 was stopped prior to switching illumination wavelengths.” left out, “The results are representative data from multiple cells in at least three independent cultures.” left out
# [6] = test system: iGluR; assay: Rates of light-driven channel activation and deactivation (whole-cell patch clamp); type: cell-based; conditions: mean±s.e.m., n=3
# Method: as §2, with “L-Glutamate, DNQX, and compound 2 were applied as reported in text and figures with complete exchange of the bath solution occurring in less than 10 sec. Compound 2 was not pre-irradiated prior to perfusion, but the bath and coverslip were continuously under illumination as denoted in traces. Following complete exchange of the bath, perfusion of 2 was stopped prior to switching illumination wavelengths.” left out, “The results are representative data from multiple cells in at least three independent cultures.” left out
smiles,measurement,setting,value
N[C@@H](CC(C/C=C/c1ccc(/N=N/c2ccccc2)cc1)C(=O)O)C(=O)O (stereo partly shown) [Compound 2],photostationary state content of cis-2,[1]; 380 nm irradiation,76.3±0.3%
same,photostationary state content of trans-2,[1]; 500 nm irradiation,89±1%
same,extent of iGluR6 channel activation,[2]; 25 μM,only activated to a small extent
same,channel activation (inward currents) depending on wavelength of irradiation,"[2]; HEK293, ConA 0.3 mg/mL pretreated, trans- versus cis-state",increased inward currents in the trans-relative to the cis-state
same,efficacy with respect to a 300 μM glutamate evoked response,[3]; dose-response curves under 380 and 500 nm light,approximately half-maximal efficacy
same,selectivity at iGluR5 over iGluR6 receptors,"[3]; dose-response curves, iGluR5(Q) versus iGluR6(Q)",high selectivity
same,reduction of apparent agonist affinity (EC50) relative to 500 nm,[3]; under 380 nm light,~10 fold
same,EC50,"[3]; under 500 nm illumination, read-out: apparent agonist affinity (EC50)",9 µM
same,inward currents in the presence of 250 μM 2,"[4]; 250 μM, 380 and 500 nm illumination",failed to produce inward currents; also recorded: no effect in either the trans- (500 nm) or cis-state (380 nm)
same,light-controlled action potential firing,"[5]; 25 μM, current clamped at −65 mV, no ConA, switching between 380 and 500 nm","sufficient to trigger, and extinguish, sustained trains of action potentials"
same,rate of deactivation τoff-380nm,"[6]; 380 nm, 1.8 mW/mm^2",250 ± 14 ms
same,rate of activation τon-500nm,"[6]; 500 nm, 4.8 mW/mm^2",310 ± 15 ms
"O=C1N=c2cc([N+](=O)[O-])c([N+](=O)[O-])cc2=NC1=O [DNQX, 6,7-dinitroquinoxaline-2,3-dione, reference compound]",block of light activation with 2,"[2]; 10 μM DNQX together with 50 μM 2, 380 and 500 nm illumination",Pharmacological block of light activation
same,block of the activity of 2,[2]; HEK293 expressing iGluR6(Q),competitively blocked
same,block of light activation with 2,"[5]; 10 μM DNQX together with 25 μM 2, 380 and 500 nm illumination",Pharmacological block of light activation
"N[C@@H](CCC(=O)O)C(=O)O [Glu, reference compound]",inward current evoked by 300 μM Glu,[4]; 300 μM,evokes a large inward current
